Measurements: patent publication US20210147343A1 (priority 2018, published 2021)
Read-outs that look alike come from different tables or passages of the source.

What was measured:
mu opioid receptor (MOR) [1] = molecular target: T1, mu opioid receptor (MOR) (Homo sapiens, UniProt P35372); test: MOR cAMP antagonist assay; assay type: cell-based; set-up: host or cells: CHO-K1
Text: MOR cAMP Antagonist Assay

[2] = molecular target: T2, kappa opioid receptor (KOR) (Homo sapiens, UniProt P41145); test: cell-based; conditions: kOR cAMP IC50, CHO-K1 cells expressing kOR; after activation with dynorphin B
T2 construct: host or cells: CHO-K1
Text: KOR cAMP Antagonist Assay

mu opioid receptor (MOR) [3] = molecular target: T1, mu opioid receptor (MOR); test: MOR GTPγS agonist assay; assay type: biochemical; set-up: host or cells: CHO-K1
Text: Membranes obtained from the stable cell lines over-expressing MOR were subjected to GTPγS assay using SPA beads (Perkin Elmer, Cat #RPNQ0001).

mu opioid receptor (MOR) [4] = molecular target: T1, mu opioid receptor (MOR); test: MOR cAMP agonist assay
Male Sprague-Dawley rats = test: Hot plate assay; assay type: in vivo; conditions: rat, SC
Description: Male Sprague-Dawley rats weighing 275-300 grams were used in the study, n=8-10 per group. Animals are injected SC with 0.9% normal saline solution. At 15, 45, and 80 min after the injection, animals were placed onto a hotplate set to 52 degrees centigrade, and baseline latency is recorded (baseline latency=average time to 2nd withdrawal response consisting of either a lick of a rear paw, shaking a rear paw, backwards walking or jumping). A day later animals were injected SC with test compounds either in vehicle solution, or with a mix of compounds in solution. Next the test latency was recorded (test latency=time to withdrawal on the hotplate measured at 15, 45, 80, 120, 180 and 240 min using the procedure described). Times were then converted to % maximum possible effect (% MPE)=(test_latecy−baseline_latency)/(30 sec-baseline_latency); where 30 sec is the cutoff where the animal is removed if no response ifs observed as it is the time point at which injury is expected to occur.

[5] = membranes of CHO cells over-expressing MOR, SPA beads, read-out: MOR GTPγS EC50

T2 sequence (P41145 whole entry): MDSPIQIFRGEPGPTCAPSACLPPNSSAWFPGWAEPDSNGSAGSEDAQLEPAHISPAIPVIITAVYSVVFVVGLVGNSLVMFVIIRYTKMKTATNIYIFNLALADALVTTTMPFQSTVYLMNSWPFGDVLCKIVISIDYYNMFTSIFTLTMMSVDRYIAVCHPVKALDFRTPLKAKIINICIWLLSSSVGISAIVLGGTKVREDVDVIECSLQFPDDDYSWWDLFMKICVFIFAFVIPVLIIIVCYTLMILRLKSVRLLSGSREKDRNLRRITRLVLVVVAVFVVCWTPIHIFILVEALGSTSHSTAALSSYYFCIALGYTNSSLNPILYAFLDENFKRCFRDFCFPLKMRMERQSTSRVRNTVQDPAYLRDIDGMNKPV
T1 sequence (P35372 whole entry): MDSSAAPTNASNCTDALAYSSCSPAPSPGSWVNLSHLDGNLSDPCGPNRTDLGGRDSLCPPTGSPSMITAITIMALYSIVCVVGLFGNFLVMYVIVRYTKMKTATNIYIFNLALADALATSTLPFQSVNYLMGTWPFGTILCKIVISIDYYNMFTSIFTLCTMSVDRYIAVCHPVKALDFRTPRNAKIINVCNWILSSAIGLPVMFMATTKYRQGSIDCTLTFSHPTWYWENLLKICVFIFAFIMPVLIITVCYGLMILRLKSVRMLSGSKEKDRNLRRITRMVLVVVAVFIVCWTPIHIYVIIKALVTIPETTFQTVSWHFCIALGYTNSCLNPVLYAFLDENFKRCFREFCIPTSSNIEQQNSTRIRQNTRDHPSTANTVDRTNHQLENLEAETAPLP

Structure (SMILES) | IC50 (mu opioid receptor (MOR) [1]) | IC50 [2] | EC50 (mu opioid receptor (MOR) [3]; [5]) | EC50 (mu opioid receptor (MOR) [4]) | also measured
CNC(=O)c1ccc(C[C@@H](CNC(=O)c2ccc(C)cc2C)N(C)C)cc1F [Compound C-40] | < 100 nM | > 1000 nM | < 100 nM |  | 
CN(C)[C@H](CNC(=O)[C@@H]1C[C@]1(C)c1ccccc1)Cc1ccc(O)c(Cl)c1 [Compound B-55, (1R,2S)—N—((S)-3-(3-chloro-4-hydroxyphenyl)-2-(dimethylamino)-propyl)-2-methyl-2-phenylcyclopropane-1-carboxamide] | < 100 nM | < 100 nM |  |  | 
CN(C)[C@H](CNC(=O)c1cccc(Cl)c1)Cc1ccc(O)cc1Cl [Compound C-22] | > 1000 nM | 100 to 1000 nM | < 100 nM |  | 
CN(C)[C@H](CNC(=O)[C@@H]1C[C@]1(C)c1ccccc1)Cc1ccc(O)cc1Cl [Compound B-15, (1R,2S)—N—((S)-3-(2-chloro-4-hydroxyphenyl)-2-(dimethylamino)-propyl)-2-methyl-2-phenylcyclopropane-1-carboxamide] |  | > 1000 nM |  | > 1000 nM | effect on the analgesic activity of agonist Compound B-56 in the hotplate test (Male Sprague-Dawley rats; co-dosed with Compound B-56, FIG. 1): blocks; effect on its own in the hotplate test (Male Sprague-Dawley rats; dosed alone, FIG. 1): no effect
Cc1cc(C[C@@H](CNC(=O)[C@@H]2C[C@]2(C)c2ccccc2)N(C)C)cc(C)c1O [Compound B-36, (1R,2S)—N—((S)-2-(dimethylamino)-3-(4-hydroxy-3,5-dimethylphenyl)propyl)-2-methyl-2-phenylcyclopropane-1-carboxamide] | < 100 nM | < 100 nM |  |  | 
Cc1cc(O)ccc1C[C@@H](CNC(=O)[C@@H]1C[C@@]1(C)c1ccccc1)N(C)C [Compound B-56, (1R,2R)—N—((S)-2-(dimethylamino)-3-(4-hydroxy-2-methylphenyl)propyl)-2-methyl-2-phenylcyclopropane-1-carboxamide] |  | < 100 nM |  | < 100 nM | analgesic activity in the hotplate test (time to exhibit a withdrawal response) (Male Sprague-Dawley rats; hotplate 52 degrees centigrade, FIG. 1): analgesic
Cc1cc(O)cc(C)c1C[C@@H](CNC(=O)[C@@H]1C[C@]1(C)c1ccccc1)N(C)C [Compound B-47, (1R,2S)—N—((S)-2-(dimethylamino)-3-(4-hydroxy-2,6-dimethylphenyl)-propyl)-2-methyl-2-phenylcyclopropane-1-carboxamide] | < 100 nM |  |  | < 100 nM | 
CN(C)[C@H](CNC(=O)c1ccccc1-c1ccccc1)Cc1ccc(O)cc1 [Compound C-66, (S)—N-(2-(dimethylamino)-3-(4-hydroxyphenyl)propyl)-[1,1′-biphenyl]-2-carboxamide] |  | 100 to 1000 nM |  |  | IC50 (mu opioid receptor (MOR) [1]; CHO-K1 cells expressing mOR, after activation with DAMGO at the EC80, read-out: MOR cAMP IC50): > 1000 nM; EC50 (mu opioid receptor (MOR) [3]): > 1000 nM
Cc1cc(O)cc(C)c1C[C@@H](CNC(=O)c1cc(Cl)c(Cl)cc1F)N(C)C [Compound C-57, (S)-4,5-dichloro-N-(2-(dimethylamino)-3-(4-hydroxy-2,6-dimethylphenyl)propyl)-2-fluorobenzamide] | < 100 nM |  | < 100 nM |  | 
CC(CC(=O)NC[C@H](Cc1ccc2c(c1)CC(=O)N2)N(C)C)c1ccccc1 (stereo in doubt) [Compound A-23, (S)—N—((S)-2-(dimethylamino)-3-(2-oxoindolin-5-yl)propyl)-3-phenylbutanamide] |  |  | < 100 nM |  | IC50 (mu opioid receptor (MOR) [1]; read-out: MOR cAMP IC50, CHO-K1 cells expressing mOR, after activation with DAMGO at the EC80): < 100 nM
Cc1cc(O)cc(C)c1C[C@@H](CNC(=O)c1ccc2occc2c1)N(C)C [Compound C-31] | < 100 nM |  | < 100 nM |  | 
CCN(CC)[C@H](CNC(=O)[C@@H]1C[C@]1(C)c1ccccc1)Cc1ccc(O)c(C)c1 [Compound B-41, (1R,2S)—N—((S)-2-(diethylamino)-3-(4-hydroxy-3-methylphenyl)propyl)-2-methyl-2-phenylcyclopropane-1-carboxamide] | 100 to 1000 nM | 100 to 1000 nM |  | < 100 nM | 
Cc1cc(C[C@@H](CNC(=O)[C@@H]2C[C@]2(C)c2ccccc2)N(C)C)ccc1O [Compound B-42, (1R,2S)—N—((S)-2-(dimethylamino)-3-(4-hydroxy-3-methylphenyl)propyl)-2-methyl-2-phenylcyclopropane-1-carboxamide] | < 100 nM | 100 to 1000 nM |  | < 100 nM | 
Cc1cc(O)ccc1C[C@@H](CNC(=O)[C@@H]1C[C@]1(C)c1ccccc1)N(C)C [Compound B-48, (1R,2S)—N—((S)-2-(dimethylamino)-3-(4-hydroxy-2-methylphenyl)propyl)-2-methyl-2-phenylcyclopropane-1-carboxamide] | < 100 nM | < 100 nM |  | > 1000 nM | 
C[C@H](CC(=O)NC[C@H](Cc1ccc2c(c1)CC(=O)N2)N(C)C)c1ccccc1 [Compound A-22, (R)—N—((S)-2-(dimethylamino)-3-(2-oxoindolin-5-yl)propyl)-3-phenylbutanamide] | < 100 nM |  | < 100 nM |  | 
CN(C)[C@H](CNC(=O)[C@@H]1C[C@]1(C)c1ccccc1)Cc1ccc(O)cc1F [Compound B-31, (1R,2S)—N—((S)-2-(dimethylamino)-3-(2-fluoro-4-hydroxyphenyl)propyl)-2-methyl-2-phenylcyclopropane-1-carboxamide] | < 100 nM | < 100 nM |  | < 100 nM | 
Cc1cc(O)cc(C)c1C[C@@H](CNC(=O)c1ccc(C(F)(F)F)cc1)N(C)C [Compound C-32, (S)—N-(2-(dimethylamino)-3-(4-hydroxy-2,6-dimethylphenyl)propyl)-4-(trifluoromethyl)benzamide] | 100 to 1000 nM |  | < 100 nM |  | 
CN(C)[C@H](CNC(=O)[C@@H]1C[C@]1(C)c1ccccc1)Cc1ccc(O)c(F)c1 [Compound B-30, (1R,2S)—N—((S)-2-(dimethylamino)-3-(3-fluoro-4-hydroxyphenyl)propyl)-2-methyl-2-phenylcyclopropane-1-carboxamide] | < 100 nM | < 100 nM |  |  | 
Cc1cc(O)cc(C)c1C[C@@H](CNC(=O)c1cc2ccccc2cn1)N(C)C [Compound C-35] | < 100 nM |  | < 100 nM |  | 
Cc1cc(O)cc(C)c1C[C@@H](CNC(=O)c1ccc(Cl)c(Cl)c1)N(C)C [Compound C-24, (S)-3,4-dichloro-N-(2-(dimethylamino)-3-(4-hydroxy-2,6-dimethylphenyl)propyl)benzamide] | < 100 nM | < 100 nM | < 100 nM |  | 
